# According to patent publication US8580790B2, “(Heterocycle/condensed piperidine)-(piperazinyl)-1-alkanone or (heterocycle/condensed pyrrolidine)-(piperazinyl)-1-alkanone derivatives and use thereof as p75 inhibitors” (Sanofi, priority 2009, dated 2013):
# Where a name gives a salt, the structure may show the parent alone.
row,melting point [°C],SMILES
1,162,"C[C@@H]1CN(c2ccc(C(F)(F)F)cn2)C[C@H](C)N1CC(=O)N1CCc2cc(-c3ccccc3)oc2C1 [compound 97, 2-[(2S,6R)-2,6-dimethyl-4-(5-trifluoromethylpyridin-2-yl)piperazin-1-yl]-1-(2-phenyl-4,7-dihydro-5H-furano[2,3-c]pyridin-6-yl)ethanone]"
2,165 to 167,"C[C@@H]1CN(CC(=O)N2CCc3nn(-c4ccccc4)cc3C2)[C@@H](C)CN1c1ccc(C(=O)O)cn1 [compound 53, 6-{(2R,5S)-2,5-dimethyl-4-[2-oxo-2-(2-phenyl-2,4,6,7-tetrahydropyrazolo[4,3-c]pyridin-5-yl)ethyl]piperazin-1-yl}nicotinic acid]"
3,122 to 123,O=C(CN1CC2CCC(C1)N2c1ncc(F)cn1)N1CCc2n[nH]cc2C1
4,150 to 151,O=C(CN1CC2CCC(C1)N2c1cccnc1)N1CCc2nn(-c3ccc(C(F)(F)F)cn3)cc2C1
5,198 to 200,"O=C(CN1CCN(c2ccc(C(F)(F)F)cn2)C(=O)C1)N1CCc2nc(-c3ccccc3)[nH]c2C1 [compound 78, 4-[2-oxo-2-(2-phenyl-3,4,6,7-tetrahydroimidazo[4,5-c]pyridin-5-yl)ethyl]-1-(5-trifluoromethylpyridin-2-yl)piperazin-2-one]"
6,148 to 150,O=C(CN1CC2CCC(C1)N2c1ccc(C(F)(F)F)cn1)N1CCc2nc(-c3ccc(F)cc3)[nH]c2C1
7,201 to 202,O=C(CN1CC2CCC(C1)N2c1ccc(-c2ncon2)cn1)N1CCc2nn(-c3ccccc3)cc2C1
8,208 to 209,O=C(CN1CC2CCC(C1)N2c1ncc(F)cn1)N1CCc2nn(-c3ccc(C(F)(F)F)cn3)cc2C1
9,179 to 180,"O=C(CN1CCN(c2ccc(C(F)(F)F)cn2)C(=O)C1)N1CCc2nc(-c3ccsc3)sc2C1 [compound 42, 4-[2-oxo-2-(2-thiophen-3-yl-6,7-dihydro-4H-thiazolo[5,4-c]pyridin-5-yl)ethyl]-1-(5-trifluoromethylpyridin-2-yl)piperazin-2-one]"
10,190 to 192,"C[C@@H]1CN(c2ccc(C(=O)O)cn2)C[C@H](C)N1CC(=O)N1CCc2nc(-c3ccccc3)[nH]c2C1 [compound 116, 6-{(3S,5R)-3,5-dimethyl-4-[2-oxo-2-(2-phenyl-3,4,6,7-tetrahydroimidazo[4,5-c]pyridin-5-yl)ethyl]piperazin-1-yl}nicotinic acid]"
11,196 to 197,"C[C@@H]1CN(c2cccnc2)C[C@H](C)N1CC(=O)N1CCc2nn(-c3ccc(C(F)(F)F)cn3)cc2C1 [compound 143, 2-((2S,6R)-2,6-dimethyl-4-pyridin-3-ylpiperazin-1-yl)-1-[2-(5-trifluoromethylpyridin-2-yl)-2,4,6,7-tetrahydropyrazolo[4,3-c]pyridin-5-yl]ethanone]"
12,70 to 71,Cn1cc2c(n1)CCN(C(=O)CN1CC3CCC(C1)N3c1ccc(C(F)(F)F)cn1)C2
13,190 to 192,Cc1nc(-c2ccc(N3C4CCC3CN(CC(=O)N3CCc5nc(-c6ccccc6)sc5C3)C4)nc2)no1
14,88 to 89,O=C(CN1CC2CCC(C1)N2c1ncc(F)cn1)N1CCc2oc(-c3ccccc3)nc2C1
15,240 to 242,O=C(CN1CC2CCC(C1)N2c1ncc(F)cn1)N1CCc2cc(-c3ccccc3)[nH]c2C1
16,185 to 186,"O=C(CN1CCN(c2cncc(Cl)n2)CC1)N1CCc2nn(-c3ccc(C(F)(F)F)cn3)cc2C1 [compound 108, 2-(6′-chloro-2,3,5,6-tetrahydro[1,2′]bipyrazinyl-4-yl)-1-[2-(5-trifluoromethylpyridin-2-yl)-2,4,6,7-tetrahydropyrazolo[4,3-c]pyridin-5-yl]ethanone]"
17,182 to 183,"C[C@@H]1CN(c2ccc(-c3nnn(C)n3)cn2)C[C@H](C)N1CC(=O)N1CCc2nn(-c3ccccc3)cc2C1 [compound 87, 2-{(2S,6R)-2,6-dimethyl-4-[5-(2-methyl-2H-tetrazol-5-yl)pyridin-2-yl]piperazin-1-yl}-1-(2-phenyl-2,4,6,7-tetrahydropyrazolo[4,3-c]pyridin-5-yl)ethanone]"
18,200 to 202,O=C(CN1CC2CCC(C1)N2c1ncc(F)cn1)N1CCc2nc(-c3cccnc3)sc2C1
19,168 to 171,"Cc1noc(-c2ccc(N3C[C@@H](C)N(CC(=O)N4CCc5nn(-c6ccccc6)cc5C4)[C@@H](C)C3)nc2)n1 [compound 91, 2-{(2S,6R)-2,6-dimethyl-4-[5-(3-methyl-[1,2,4]oxadiazol-5-yl)-pyridin-2-yl]piperazin-1-yl}-1-(2-phenyl-2,4,6,7-tetrahydropyrazolo[4,3-c]pyridin-5-yl)ethanone]"
20,262 to 264,O=C(O)c1ccc(N2C3CCC2CN(CC(=O)N2CCc4nc(-c5ccsc5)sc4C2)C3)nc1
21,162 to 163,COC(=O)c1ccc(N2CC3CCC(C2)N3CC(=O)N2CCc3nc(-c4ccccc4)sc3C2)nc1

row,melting point [°C],SMILES
1,61 to 62,O=C(CN1CC2CCC(C1)N2c1cccnc1)N1CCc2nn(-c3ccccn3)cc2C1
2,191 to 193,"COc1ccc(-c2nc3c(s2)CN(C(=O)CN2CCN(c4ccc(C(F)(F)F)cn4)C(=O)C2)CC3)cc1 [compound 34, 4-{2-[2-(4-methoxyphenyl)-6,7-dihydro-4H-thiazolo[5,4-c]pyridin-5-yl]-2-oxoethyl}-1-(5-trifluoromethylpyridin-2-yl)piperazin-2-one]"
3,192 to 193,O=C(CN1CC2CCC(C1)N2c1ccc(C(F)(F)F)cn1)N1CCc2nn(-c3ccc(C(F)(F)F)cn3)cc2C1
4,217 to 218,COC(=O)c1ccc(N2C3CCC2CN(CC(=O)N2CCc4nn(-c5ccc(C(F)(F)F)cn5)cc4C2)C3)nc1
5,186 to 188,COc1ccc(-n2cc3c(n2)CCN(C(=O)CN2CC4CCC(C2)N4c2ncc(F)cn2)C3)cc1
6,151 to 153,"C[C@@H]1CN(c2ccc(C(F)(F)F)cn2)C[C@H](C)N1CC(=O)N1CCc2nn(CC(F)(F)F)cc2C1 (as salt: oxalate) [compound 126, 2-[(2S,6R)-2,6-dimethyl-4-(5-trifluoromethylpyridin-2-yl)piperazin-1-yl]-1-[2-(2,2,2-trifluoroethyl)-2,4,6,7-tetrahydropyrazolo[4,3-c]pyridin-5-yl]ethanone]"
7,139 to 140,"O=C(CN1CCN(c2ccc(C(F)(F)F)cn2)C(=O)C1)N1CCc2nn(-c3ccccn3)cc2C1 [compound 119, 4-[2-oxo-2-(2-pyridin-2-yl-2,4,6,7-tetrahydropyrazolo[4,3-c]pyridin-5-yl)ethyl]-1-(5-trifluoromethylpyridin-2-yl)piperazin-2-one]"
8,120 to 121,"C[C@@H]1CN(c2ccc(C(=O)O)cn2)C[C@H](C)N1CC(=O)N1CCc2nn(C(C)(C)C)cc2C1 [compound 105, 6-{(3S,5R)-4-[2-(2-tert-butyl-2,4,6,7-tetrahydropyrazolo[4,3-c]pyridin-5-yl)-2-oxoethyl]-3,5-dimethylpiperazin-1-yl}nicotinic acid]"
9,189 to 190,"C[C@@H]1CN(c2ccc(-c3nnco3)cn2)C[C@H](C)N1CC(=O)N1CCc2nn(-c3ccccc3)cc2C1 [compound 90, 2-[(2S,6R)-2,6-dimethyl-4-(5-[1,3,4]oxadiazol-2-ylpyridin-2-yl)piperazin-1-yl]-1-(2-phenyl-2,4,6,7-tetrahydropyrazolo[4,3-c]pyridin-5-yl)ethanone]"
10,190 to 192,"O=C(CN1CCN(c2ccc(C(F)(F)F)cn2)C(=O)C1)N1CCc2nc(-c3ccc(F)cc3)[nH]c2C1 [compound 120, 4-{2-[2-(4-fluorophenyl)-3,4,6,7-tetrahydroimidazo[4,5-c]pyridin-5-yl]-2-oxoethyl}-1-(5-trifluoromethylpyridin-2-yl)piperazin-2-one]"
11,180 to 183,"O=C(CN1CCN(c2ccc(C(F)(F)F)cn2)C(=O)C1)N1CCc2nc(-c3cccnc3)sc2C1 [compound 84, 4-[2-oxo-2-(2-pyridin-3-yl-6,7-dihydro-4H-thiazolo[5,4-c]pyridin-5-yl)ethyl]-1-(5-trifluoromethylpyridin-2-yl)piperazin-2-one]"
12,176 to 177,O=C(OC1CCC1)c1ccc(N2C3CCC2CN(CC(=O)N2CCc4nn(-c5ccccc5)cc4C2)C3)nc1
13,155 to 156,"O=C(CN1CCN(c2cccc(Cl)n2)CC1)N1CCc2nn(-c3ccccc3)cc2C1 [compound 114, 2-[4-(6-chloropyridin-2-yl)piperazin-1-yl]-1-(2-phenyl-2,4,6,7-tetrahydropyrazolo[4,3-c]pyridin-5-yl)ethanone]"
14,166 to 167,"C[C@@H]1CN(c2cncnc2)C[C@H](C)N1CC(=O)N1CCc2nn(-c3ccccc3)cc2C1 (as salt: HCl) [compound 16, 2-((2S,6R)-2,6-dimethyl-4-pyrimidin-5-yl-piperazin-1-yl)-1-(2-phenyl-2,4,6,7-tetrahydropyrazolo[4,3-c]pyridin-5-yl)ethanone]"
15,99 to 100,CCn1cc2c(n1)CCN(C(=O)CN1CC3CCC(C1)N3c1ccc(C(F)(F)F)cn1)C2
16,173 to 174,"C[C@@H]1CN(c2ccc(-c3nccs3)cn2)C[C@H](C)N1CC(=O)N1CCc2nn(-c3ccccc3)cc2C1 [compound 135, 2-[(2S,6R)-2,6-dimethyl-4-(5-thiazol-2-ylpyridin-2-yl)piperazin-1-yl]-1-(2-phenyl-2,4,6,7-tetrahydropyrazolo[4,3-c]pyridin-5-yl)ethanone]"
17,140 to 142,"O=C(CN1CCN(c2ccc(C(F)(F)F)cn2)C(=O)C1)N1CCc2oc(-c3ccccc3)nc2C1 [compound 83, 4-[2-oxo-2-(2-phenyl-6,7-dihydro-4H-oxazolo[4,5-c]pyridin-5-yl)ethyl]-1-(5-trifluoromethylpyridin-2-yl)piperazin-2-one]"
18,197 to 198,O=C(CN1CC2CCC(C1)N2c1cncnc1)N1CCc2nn(-c3ccccc3)cc2C1
19,240 to 244,O=C(O)c1ccc(N2C3CCC2CN(CC(=O)N2CCc4nc(-c5ccc(F)cc5)sc4C2)C3)nc1
20,183 to 185,O=C(CN1CC2CCC(C1)N2c1ccc(C(F)(F)F)cn1)N1CCc2nc(-c3ccncc3)sc2C1
